What was measured:
[1] = system: skin; test: Tanning effect of MSM additions to DHA formulas or accelerators; format: in vivo, human
Source text: Applicant has conducted experiments with a typical oil-in-water self tanning cream containing DHA as the self tanning agent with or without the inclusion of MSM. […] Applicant also conducted experiments with DHA containing self-tanning liquid mousse compositions, with and without MSM.

[2] = Solubility of MSM in water; format: physicochemical; conditions: by weight

- solubility of MSM in water [2]: ~20%
SMILES: CS(C)(=O)=O [MSM, methylsulfonyl methane]
- tanning effect ([1]; 0.1% addition of MSM): ineffective
- tanning effect ([1]; addition of 5% MSM to DHA formulas, with or without soluble dyes): enhances tanning effect producing a more intense hue that lasts longer
